Experimental data as given in patent publication US20250215039A1, “NUCLEOSIDES FOR TREATING CANCER” (PRIMEFOUR THERAPEUTICS, INC., priority 2022, published 2025).
Read-outs that look alike come from different tables or passages of the source.

Tested on: cancer cell lines
Experiment: Cancer cell proliferation activity (CellTiterGlo, 72 h)
Assay type: cell-based
Conditions: 72 h, 72 h, read-out: IC50 cell proliferation
How it was run: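 Cells seeded overnight at 37 °C, then dosed with compound at 0.1% final DMSO and incubated 72 h at 37 °C (5% or 10% CO2 by medium).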

Nc1nc(=O)n([C@H]2C[C@H](O)[C@@H](CO)O2)cc1F [compound 169, 4-amino-5-fluoro-1-((2R,4S,5R)-4-hydroxy-5-(hydroxymethyl)tetrahydrofuran-2-yl)pyrimidin-2(1H)-one]
IC50 (5637 (bladder)): 0.001 µM
IC50 (CLS439 (bladder)): 0.023 µM
IC50 (HS729 (muscle)): 0.015 µM
IC50 (J82 (bladder)): 0.005 µM
IC50 (JAR (placenta)): 0.018 µM
IC50 (MT3 (breast)): 0.004 µM
IC50 (PANCI (pancreas)): 0.028 µM
IC50 (PC3 (prostate)): 0.014 µM
IC50 (RD (muscle)): 0.01 µM
IC50 (T24 (bladder)): 0.005 µM
IC50 (Homo sapiens, 22Rv1, 72 h, 22RV1 (prostate)): 0.002 µM
IC50 (Homo sapiens, 786-0, 72 h, 786O (kidney)): 0.017 µM
IC50 (Homo sapiens, A204, 72 h, A204 (muscle)): 0.051 µM
IC50 (Homo sapiens, A549, 72 h, A549 (lung)): 0.014 µM
IC50 (Homo sapiens, A673, 72 h, A673 (bone)): 0.003 µM
IC50 (Homo sapiens, A2780, 72 h, A2780 (ovary)): 0.008 µM
IC50 (Homo sapiens, A-375, 72 h, A375 (skin)): 0.007 µM
IC50 (Homo sapiens, A-431, 72 h, A431 (skin)): 0.0004 µM
IC50 (Homo sapiens, ACHN, ACHN (kidney)): 0.003 µM
IC50 (Homo sapiens, ASPC1, 72 h, ASPC1 (pancreas)): 0.008 µM
IC50 (Homo sapiens, BT-20, 72 h, BT20 (breast)): > 50 µM
IC50 (Homo sapiens, BXPC-3, 72 h, BXPC3 (pancreas)): 0.001 µM
IC50 (Homo sapiens, C-33-A, C33A (endometrial)): 0.009 µM
IC50 (Homo sapiens, CAKI-1, 72 h, CAKI1 (kidney)): 0.045 µM
IC50 (Homo sapiens, COLO 205, 72 h, COLO205 (colon)): 0.001 µM
IC50 (Homo sapiens, COLO-678, 72 h, COLO678 (colon)): > 50 µM
IC50 (Homo sapiens, Ca-Ski, CASKI (endometrial)): 0.023 µM
IC50 (Homo sapiens, Caco-2, 72 h, CACO2 (colon)): > 50 µM
IC50 (Homo sapiens, Calu-6, 72 h, CALU6 (lung)): 0.029 µM
IC50 (Homo sapiens, DLD-1, 72 h, DLD1 (colon)): 0.016 µM
IC50 (Homo sapiens, DU-145, 72 h, DU145 (prostate)): 0.01 µM
IC50 (Homo sapiens, EFO-21, 72 h, EFO21 (ovary)): 0.476 µM
IC50 (Homo sapiens, EJ-28, 72 h, EJ28 (bladder)): 0.004 µM
IC50 (Homo sapiens, Granta-519, 72 h, GRANTA-519 (hematological)): 0.009 µM
IC50 (Homo sapiens, HCT-15, 72 h, HCT15 (colon)): 0.015 µM
IC50 (Homo sapiens, HCT-116, 72 h, HCT116 (colon)): 0.023 µM
IC50 (Homo sapiens, HEK293, 72 h, HEK293 (kidney)): 0.03 µM
IC50 (Homo sapiens, HL-60, 72 h, HL-60 (hematological)): 0.008 µM
IC50 (Homo sapiens, HT-29, 72 h, HT29 (colon)): 0.002 µM
IC50 (Homo sapiens, HT-1080, 72 h, HT1080 (connective tissue)): 0.008 µM
IC50 (Homo sapiens, HeLa, HELA (endometrial)): 1.53 µM
IC50 (Homo sapiens, HepG2, 72 h, HEPG2 (liver)): 0.002 µM
IC50 (Homo sapiens, Hs-578T, HS578T (breast)): > 50 µM
IC50 (Homo sapiens, IGROV-1, 72 h, IGROV1 (ovary)): 0.022 µM
IC50 (Homo sapiens, IMR-90, 72 h, IMR90 (lung)): > 50 µM
IC50 (Homo sapiens, JEG-3, 72 h, JEG3 (placenta)): 0.002 µM
IC50 (Homo sapiens, JIMT-1, 72 h, JIMT1 (breast)): 0.034 µM
IC50 (Homo sapiens, K562, 72 h, K-562 (hematological)): 0.094 µM
IC50 (Homo sapiens, Kasumi 1, 72 h, KASUMI-1 (hematological)): 0.016 µM
IC50 (Homo sapiens, L-363, 72 h, L-363 (hematological)): 0.003 µM
IC50 (Homo sapiens, LoVo, LOVO (colon)): 0.002 µM
IC50 (Homo sapiens, MCF7, 72 h, MCF7 (breast)): 0.002 µM
IC50 (Homo sapiens, MDA-MB-231, 72 h, MDAMB231 (breast)): 0.381 µM
IC50 (Homo sapiens, MDA-MB-435, 72 h, MDAMB435 (skin)): 0.017 µM
IC50 (Homo sapiens, MDA-MB-436, 72 h, MDAMB436 (breast)): 0.003 µM
IC50 (Homo sapiens, MDA-MB-468, 72 h, MDAMB468 (breast)): 0.018 µM
IC50 (Homo sapiens, MG-63, 72 h, MG63 (bone)): 0.01 µM
IC50 (Homo sapiens, MHH-ES-1, 72 h, MHHES1 (bone)): 0.005 µM
IC50 (Homo sapiens, MIA PaCa-2, 72 h, MIAPACA2 (pancreas)): 0.016 µM
IC50 (Homo sapiens, MINO, MINO (hematological)): 0.001 µM
IC50 (Homo sapiens, MV4-11, 72 h, MV4-11 (hematological)): 0.001 µM
IC50 (Homo sapiens, NCI-H23, 72 h, NCI-H23 (lung)): 0.008 µM
IC50 (Homo sapiens, NCI-H82, 72 h, NCIH82 (lung)): 0.006 µM
IC50 (Homo sapiens, NCI-H292, 72 h, NCIH292 (lung)): 0.019 µM
IC50 (Homo sapiens, NCI-H460, 72 h, NCIH460 (lung)): 0.002 µM
IC50 (Homo sapiens, OVCAR-3, 72 h, OVCAR3 (ovary)): 0.015 µM
IC50 (Homo sapiens, OVCAR-4, 72 h, OVCAR4 (ovary)): 0.538 µM
IC50 (Homo sapiens, PLC-PRF-5, 72 h, PLCPRF5 (liver)): 0.019 µM
IC50 (Homo sapiens, Panc1005, 72 h, PANC1005 (pancreas)): 0.553 µM
IC50 (Homo sapiens, Ramos, RAMOS (hematological)): 0.018 µM
IC50 (Homo sapiens, SAOS-2, 72 h, SAOS2 (bone)): 0.003 µM
IC50 (Homo sapiens, SF-268, 72 h, SF268 (brain)): 0.007 µM
IC50 (Homo sapiens, SF-295, 72 h, SF295 (brain)): 0.007 µM
IC50 (Homo sapiens, SK-HEP1, 72 h, SKHEP1 (liver)): 0.016 µM
IC50 (Homo sapiens, SK-LMS-1, 72 h, SKLMS1 (uterus)): 0.011 µM
IC50 (Homo sapiens, SK-MEL-5, 72 h, SKMEL5 (skin; SKMELS [sic] in Table 9E)): 0.029 µM
IC50 (Homo sapiens, SK-MEL-28, 72 h, SKMEL28 (skin)): 0.112 µM
IC50 (Homo sapiens, SK-N-AS, SKNAS (brain)): > 50 µM
IC50 (Homo sapiens, SK-N-SH, SKNSH (brain)): 0.151 µM
IC50 (Homo sapiens, SK-OV-3, 72 h, SKOV3 (ovary)): 0.028 µM
IC50 (Homo sapiens, SNB-75, 72 h, SNB75 (brain)): > 50 µM
IC50 (Homo sapiens, SU-DHL10, 72 h, SU-DHL-10 (hematological)): 0.226 µM
IC50 (Homo sapiens, SU-DHL-6, 72 h, SU-DHL-6 (hematological)): 0.007 µM
IC50 (Homo sapiens, SW-620, 72 h, SW620 (colon)): 0.002 µM
IC50 (Homo sapiens, TE-671, 72 h, TE671 (muscle)): 0.008 µM
IC50 (Homo sapiens, THP-1, 72 h, THP-1 (hematological)): 0.002 µM
IC50 (Homo sapiens, U2OS, U20S (bone; U2OS in Table 9E)): > 50 µM
IC50 (Homo sapiens, U-87 MG, U87MG (brain)): > 50 µM
IC50 (Homo sapiens, UMUC3, 72 h, UMUC3 (bladder)): 0.007 µM
IC50 (Homo sapiens, UO-31, 72 h, UO31 (kidney)): 0.031 µM
IC50 (Homo sapiens, WSU-NHL, WSU-NHL (hematological)): 0.001 µM
IC50 (NCI-H358M, NCIH358M (lung)): 0.006 µM
IC50 (PBMC, PBMC (hematological)): > 50 µM
IC50 (RD-ES, RDES (bone)): 0.007 µM
